According to the CheMixHub viscosity set:
± gives the uncertainty stated by the source.

Test: xn = mol fraction of the nth substance listed

CCNCC + CCCCCCCCCO
viscosity [mPa·s], 100 kPa
Conditions | x1 = 0.0799 | x1 = 0.1586 | x1 = 0.2389 | x1 = 0.3485 | x1 = 0.4391 | x1 = 0.5594 | x1 = 0.649 | x1 = 0.7395 | x1 = 0.8499 | x1 = 0.9397
293.15 K | 10.36 ± 0.83 | 9.36 ± 0.75 | 8.35 ± 0.67 | 7.05 ± 0.57 | 5.99 ± 0.48 | 4.66 ± 0.37 | 3.71 ± 0.3 | 2.79 ± 0.22 | 1.71 ± 0.14 | 0.87 ± 0.07
303.15 K | 7.11 ± 0.57 | 6.4 ± 0.51 | 5.7 ± 0.46 | 4.78 ± 0.38 | 4.05 ± 0.33 | 3.14 ± 0.25 | 2.5 ± 0.2 | 1.88 ± 0.15 | 1.17 ± 0.1 | 0.63 ± 0.05
313.15 K | 5.05 ± 0.41 | 4.53 ± 0.36 | 4.03 ± 0.32 | 3.37 ± 0.27 | 2.85 ± 0.23 | 2.21 ± 0.18 | 1.77 ± 0.14 | 1.34 ± 0.11 | 0.85 ± 0.07 | 0.49 ± 0.04
323.15 K | 3.71 ± 0.3 | 3.34 ± 0.27 | 2.97 ± 0.24 | 2.49 ± 0.2 | 2.12 ± 0.17 | 1.65 ± 0.13 | 1.33 ± 0.11 | 1.02 ± 0.08 | 0.67 ± 0.05 | 0.4 ± 0.03

CCCBr + C1CCCCC1
308.15 K, 101 kPa
Conditions | viscosity [mPa·s]
x2 = 0.0957 | 0.4455 ± 0.0038
x2 = 0.1997 | 0.46 ± 0.0038
x2 = 0.2991 | 0.4715 ± 0.0038
x2 = 0.4983 | 0.516 ± 0.0039
x2 = 0.6052 | 0.5432 ± 0.004
x2 = 0.7135 | 0.5889 ± 0.0042
x2 = 0.801 | 0.6197 ± 0.0043
x2 = 0.9011 | 0.6872 ± 0.0047

COCCOCCOCCOC + CCCCCCO
101 kPa
Conditions | viscosity [mPa·s]
293.15 K, x1 = 0.04492 | 4.503 ± 0.048
293.15 K, x1 = 0.09537 | 3.827 ± 0.041
293.15 K, x1 = 0.1973 | 3.104 ± 0.033
293.15 K, x1 = 0.2976 | 2.686 ± 0.029
293.15 K, x1 = 0.4067 | 2.427 ± 0.026
293.15 K, x1 = 0.5095 | 2.269 ± 0.024
293.15 K, x1 = 0.6012 | 2.199 ± 0.024
293.15 K, x1 = 0.6895 | 2.144 ± 0.023
293.15 K, x1 = 0.7928 | 2.134 ± 0.023
293.15 K, x1 = 0.8972 | 2.135 ± 0.023
293.15 K, x1 = 0.9607 | 2.158 ± 0.023
303.15 K, x1 = 0.04662 | 3.285 ± 0.035
303.15 K, x1 = 0.09419 | 2.854 ± 0.031
303.15 K, x1 = 0.2001 | 2.327 ± 0.025
303.15 K, x1 = 0.2995 | 2.056 ± 0.022
303.15 K, x1 = 0.4075 | 1.869 ± 0.02
303.15 K, x1 = 0.5134 | 1.747 ± 0.019
303.15 K, x1 = 0.5831 | 1.711 ± 0.019
303.15 K, x1 = 0.6929 | 1.697 ± 0.018
303.15 K, x1 = 0.7889 | 1.712 ± 0.019
303.15 K, x1 = 0.9161 | 1.735 ± 0.019
303.15 K, x1 = 0.9401 | 1.753 ± 0.019
313.15 K, x1 = 0.04436 | 2.565 ± 0.028
313.15 K, x1 = 0.09283 | 2.292 ± 0.025
313.15 K, x1 = 0.2014 | 1.894 ± 0.02
313.15 K, x1 = 0.2982 | 1.701 ± 0.018
313.15 K, x1 = 0.41 | 1.56 ± 0.017
313.15 K, x1 = 0.5102 | 1.491 ± 0.016
313.15 K, x1 = 0.601 | 1.454 ± 0.016
313.15 K, x1 = 0.6974 | 1.435 ± 0.016
313.15 K, x1 = 0.8008 | 1.435 ± 0.016
313.15 K, x1 = 0.8996 | 1.453 ± 0.016
313.15 K, x1 = 0.9626 | 1.462 ± 0.016

COCCOCCOCCOC + ClC(Cl)Cl
298.15 K, 101 kPa
Conditions | viscosity [mPa·s]
x1 = 0.0083 | 0.569 ± 0.01
x1 = 0.0278 | 0.622 ± 0.01
x1 = 0.0552 | 0.702 ± 0.011
x1 = 0.0851 | 0.795 ± 0.012
x1 = 0.1347 | 0.962 ± 0.013
x1 = 0.195 | 1.16 ± 0.015
x1 = 0.241 | 1.295 ± 0.017
x1 = 0.2903 | 1.425 ± 0.018
x1 = 0.3545 | 1.559 ± 0.02
x1 = 0.4174 | 1.678 ± 0.021
x1 = 0.4686 | 1.717 ± 0.022
x1 = 0.5236 | 1.766 ± 0.022
x1 = 0.5853 | 1.809 ± 0.023
x1 = 0.631 | 1.836 ± 0.023
x1 = 0.708 | 1.868 ± 0.024
x1 = 0.7445 | 1.893 ± 0.024
x1 = 0.8071 | 1.901 ± 0.024
x1 = 0.8627 | 1.918 ± 0.024
x1 = 0.9174 | 1.934 ± 0.024
x2 = 0.0147 | 1.949 ± 0.024

CCOC(=O)CCCBr + CCCCCC
303.15 K, 101 kPa
Conditions | viscosity [mPa·s]
x1 = 0.2012 | 0.4062 ± 0.0048
x1 = 0.3949 | 0.5871 ± 0.0054
x1 = 0.4988 | 0.7248 ± 0.0059
x1 = 0.6008 | 0.8853 ± 0.0065
x1 = 0.7973 | 1.274 ± 0.0081

C[NH+](CCO)CCO.O=C[O-] + CCCO
viscosity [mPa·s], 101 kPa
Conditions | 293.15 K | 303.15 K | 313.15 K | 323.15 K
x1 = 0.0561 | 29.65 ± 0.61 | 17.05 ± 0.35 | 8.082 ± 0.17 | 5.559 ± 0.12
x1 = 0.1033 | 51.95 ± 1.1 | 25.07 ± 0.52 | 13.55 ± 0.28 | 9.307 ± 0.19
x1 = 0.1976 | 99.81 ± 2.2 | 47.76 ± 0.99 | 25.74 ± 0.53 | 17.6 ± 0.36
x1 = 0.3071 | 159.4 ± 4 | 78.44 ± 1.7 | 41.48 ± 0.86 | 28.28 ± 0.58
x1 = 0.4049 | 216.8 ± 5.9 | 106.9 ± 2.4 | 57.05 ± 1.2 | 38.83 ± 0.8
x1 = 0.5231 | 293.9 ± 8.8 | 143.5 ± 3.5 | 78.48 ± 1.7 | 53.2 ± 1.1
x1 = 0.6246 | 369.5 ± 12 | 179.8 ± 4.7 | 99.71 ± 2.2 | 67.21 ± 1.4
x1 = 0.7259 | 455.1 ± 16 | 222.6 ± 6.2 | 123.6 ± 2.9 | 82.66 ± 1.8
x1 = 0.8079 | 531.2 ± 19 | 261.8 ± 7.6 | 144.3 ± 3.5 | 95.86 ± 2.1
x1 = 0.9055 | 627 ± 23 | 310.4 ± 9.5 | 169 ± 4.3 | 111.4 ± 2.6
x1 = 0.9558 | 671.4 ± 26 | 331.9 ± 10 | 180.4 ± 4.7 | 118.7 ± 2.8

Nc1ccccc1 + CCCCCCCCO
viscosity [mPa·s], 100 kPa
Conditions | x1 = 0.0862 | x1 = 0.1575 | x1 = 0.2382 | x1 = 0.3514 | x1 = 0.4471 | x1 = 0.5637 | x1 = 0.6558 | x1 = 0.7476 | x1 = 0.8555 | x1 = 0.9421
293.15 K | 8.01 ± 0.64 | 7.27 ± 0.58 | 6.6 ± 0.53 | 5.83 ± 0.47 | 5.28 ± 0.42 | 4.66 ± 0.37 | 4.4 ± 0.35 | 4.19 ± 0.34 | 4.03 ± 0.32 | 4.14 ± 0.33
303.15 K | 5.66 ± 0.45 | 5.15 ± 0.41 | 4.7 ± 0.38 | 4.15 ± 0.33 | 3.77 ± 0.3 | 3.36 ± 0.27 | 3.15 ± 0.25 | 3.03 ± 0.24 | 2.93 ± 0.24 | 3 ± 0.24
313.15 K | 4.11 ± 0.33 | 3.75 ± 0.3 | 3.47 ± 0.28 | 3.1 ± 0.25 | 2.85 ± 0.23 | 2.57 ± 0.21 | 2.43 ± 0.2 | 2.34 ± 0.19 | 2.3 ± 0.18 | 2.36 ± 0.19
323.15 K | 3.09 ± 0.25 | 2.85 ± 0.23 | 2.63 ± 0.21 | 2.37 ± 0.19 | 2.18 ± 0.17 | 1.98 ± 0.16 | 1.89 ± 0.15 | 1.83 ± 0.15 | 1.81 ± 0.15 | 1.86 ± 0.15

C1COCCOCCOCCOCCO1 + CN(C)C=O
101 kPa
Conditions | viscosity [mPa·s]
293.15 K, x1 = 0.00344 | 0.8668 ± 0.012
293.15 K, x1 = 0.0059 | 0.8771 ± 0.012
293.15 K, x1 = 0.008679 | 0.8888 ± 0.012
293.15 K, x1 = 0.01131 | 0.8997 ± 0.012
293.15 K, x1 = 0.01335 | 0.9089 ± 0.012
293.15 K, x1 = 0.01528 | 0.9166 ± 0.012
298.15 K, x1 = 0.003438 | 0.8165 ± 0.011
298.15 K, x1 = 0.006613 | 0.8287 ± 0.011
298.15 K, x1 = 0.009181 | 0.8386 ± 0.011
298.15 K, x1 = 0.01161 | 0.8485 ± 0.011
298.15 K, x1 = 0.0137 | 0.8568 ± 0.011
298.15 K, x1 = 0.01547 | 0.8639 ± 0.012
303.15 K, x1 = 0.002196 | 0.7595 ± 0.01
303.15 K, x1 = 0.004812 | 0.7687 ± 0.01
303.15 K, x1 = 0.006882 | 0.7758 ± 0.01
303.15 K, x1 = 0.008916 | 0.7832 ± 0.01
303.15 K, x1 = 0.01094 | 0.7907 ± 0.011
303.15 K, x1 = 0.01259 | 0.797 ± 0.011
308.15 K, x1 = 0.003532 | 0.7213 ± 0.0097
308.15 K, x1 = 0.006367 | 0.7307 ± 0.0099
308.15 K, x1 = 0.008768 | 0.7387 ± 0.01
308.15 K, x1 = 0.01108 | 0.7463 ± 0.01
308.15 K, x1 = 0.01321 | 0.7538 ± 0.01
308.15 K, x1 = 0.01506 | 0.7599 ± 0.01
